Source: the supplement of paper PMC10307832

What was measured:
Experiment in all cases: relative viability (nuclei count vs DMSO), 5 days (fraction); higher = more cells survive
GSK-J4 + Crizotinib = compound: CCOC(=O)CCNc1cc(N2CCc3ccccc3CC2)nc(-c2ccccn2)n1 [GSK-J4] + C[C@@H](Oc1cc(-c2cnn(C3CCNCC3)c2)cnc1N)c1c(Cl)ccc(F)c1Cl [Crizotinib] (partner 1 µM)
Summary of the method: (§1)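 Each reported value is a median over duplicate plates. It expresses relative viability: treated-well nuclei count divided by vehicle-well nuclei count. Lung cancer cell lines in 1536-well plates were dosed by pin tool a day after seeding, alone with one drug or with a fixed anchor-drug dose plus five library-drug doses (not always all listed) in √10 steps, and nuclei were counted after 5 days.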

GSK-J4 + Linsitinib = compound: CCOC(=O)CCNc1cc(N2CCc3ccccc3CC2)nc(-c2ccccn2)n1 [GSK-J4] + C[C@]1(O)C[C@@H](c2nc(-c3ccc4ccc(-c5ccccc5)nc4c3)c3c(N)nccn32)C1 [Linsitinib] (partner 1 µM)
Summary of the method: as §1

AZ3146 + Palbociclib = compound: CN1CCC(CC1)OC2=CC(=C(C=C2)NC3=NC=C4C(=N3)N(C(=O)N4C)C5CCCC5)OC [AZ3146] + CC(=O)c1c(C)c2cnc(Nc3ccc(N4CCNCC4)cn3)nc2n(C2CCCC2)c1=O [Palbociclib] (partner 0.5 µM)
Summary of the method: as §1

AZ3146 + Decitabine = compound: CN1CCC(CC1)OC2=CC(=C(C=C2)NC3=NC=C4C(=N3)N(C(=O)N4C)C5CCCC5)OC [AZ3146] + Nc1ncn([C@H]2C[C@H](O)[C@@H](CO)O2)c(=O)n1 [Decitabine] (partner 2 µM)
Summary of the method: as §1

Cell Line | relative viability (GSK-J4 + Crizotinib; first compound 0.5 µM) | relative viability (GSK-J4 + Crizotinib; first compound 5 µM) | relative viability (GSK-J4 + Crizotinib; first compound 15.81 µM) | relative viability (GSK-J4 + Crizotinib; first compound 50 µM) | relative viability (GSK-J4 + Linsitinib; first compound 0.5 µM) | relative viability (GSK-J4 + Linsitinib; first compound 5 µM) | relative viability (GSK-J4 + Linsitinib; first compound 15.81 µM) | relative viability (GSK-J4 + Linsitinib; first compound 50 µM) | relative viability (AZ3146 + Palbociclib; first compound 0.08 µM) | relative viability (AZ3146 + Palbociclib; first compound 0.253 µM) | relative viability (AZ3146 + Palbociclib; first compound 0.8 µM) | relative viability (AZ3146 + Palbociclib; first compound 2.53 µM) | relative viability (AZ3146 + Palbociclib; first compound 8 µM) | relative viability (AZ3146 + Decitabine; first compound 0.08 µM) | relative viability (AZ3146 + Decitabine; first compound 0.253 µM) | relative viability (AZ3146 + Decitabine; first compound 0.8 µM) | relative viability (AZ3146 + Decitabine; first compound 2.53 µM) | relative viability (AZ3146 + Decitabine; first compound 8 µM) | relative viability (GSK-J4 + Crizotinib; first compound 1.581 µM) | relative viability (GSK-J4 + Linsitinib; first compound 1.581 µM)
NCI-H1666 | 0.925 | 1.01 | 0.882 | 0.462 | 0.873 | 0.888 | 0.779 | 0.764 | 0.586 | 0.659 | 0.672 | 0.663 | 0.656 | 0.666 | 0.706 | 0.679 | 0.673 | 0.711 | – | –
NCI-H1734 | 0.645 | 0.576 | 0.57 | 0.486 | 0.884 | 0.818 | 0.757 | 0.816 | 0.308 | 0.376 | 0.387 | 0.3 | 0.317 | 0.4 | 0.499 | 0.429 | 0.5 | 0.484 | 0.637 | 0.72
NCI-H1755 | 0.841 | 0.891 | 0.733 | 0.772 | 0.958 | 0.962 | 0.858 | 0.959 | 0.414 | 0.427 | 0.434 | 0.479 | 0.431 | 0.68 | 0.716 | 0.739 | 0.842 | 0.839 | 0.821 | 0.561
NCI-H1792 | 0.981 | 0.911 | 0.955 | 0.959 | 0.543 | 0.518 | 0.465 | 0.635 | 0.507 | 0.664 | – | 0.679 | 0.669 | 0.399 | 0.503 | 0.54 | 0.641 | 0.669 | 0.675 | 0.296
NCI-H1915 | 0.852 | 0.87 | 0.915 | 0.804 | 1.06 | 1.09 | 1.07 | 1.11 | 0.431 | 0.571 | 0.564 | 0.573 | 0.491 | 0.267 | 0.27 | 0.266 | 0.251 | 0.264 | 0.826 | 0.722
NCI-H1944 | 1.14 | 1.11 | 1.1 | 1.07 | 1.2 | 1.22 | 1.22 | 1.2 | 0.302 | 0.322 | 0.298 | 0.39 | 0.326 | 0.329 | 0.44 | 0.429 | 0.445 | 0.468 | 1.06 | 0.977
NCI-H1975 | 0.928 | – | 0.998 | 1 | 0.871 | – | 0.982 | 1.17 | 0.534 | 0.548 | 0.562 | 0.552 | 0.309 | 0.415 | 0.601 | 0.367 | 0.379 | 0.415 | 1.02 | 0.934
NCI-H1993 | 0.826 | 0.938 | 0.841 | 0.796 | 0.694 | 0.814 | 0.779 | 0.785 | 0.721 | 0.71 | 0.579 | 0.639 | 0.762 | 0.699 | 0.54 | 0.561 | 0.588 | 0.594 | 0.789 | 0.752
NCI-H2009 | 0.955 | 0.77 | 1.05 | 0.789 | 1.19 | 0.983 | 1.17 | 0.947 | 0.256 | 0.227 | 0.243 | 0.171 | 0.204 | 0.372 | 0.333 | 0.41 | 0.417 | 0.328 | 1 | 0.873
NCI-H2023 | 0.542 | 0.678 | 0.597 | 0.654 | 0.658 | 0.815 | 0.582 | 0.674 | 0.347 | 0.343 | 0.364 | 0.311 | 0.255 | 0.235 | 0.203 | 0.246 | 0.227 | 0.13 | 0.621 | 0.675
NCI-H2085 | 0.839 | 0.617 | 0.794 | 0.906 | 0.801 | 0.926 | 0.874 | 0.771 | 0.489 | 0.472 | 0.475 | 0.497 | 0.432 | 0.525 | 0.53 | 0.581 | 0.598 | 0.611 | 0.609 | 0.812
NCI-H2087 | 0.685 | – | 0.859 | 0.516 | 0.791 | – | 0.864 | 0.641 | 0.181 | 0.235 | 0.244 | 0.267 | 0.206 | 0.227 | 0.328 | 0.289 | 0.315 | 0.202 | 0.767 | 0.94
NCI-H2126 | 0.99 | 1 | 0.979 | 0.917 | 0.735 | 0.732 | 0.677 | 0.725 | 0.336 | 0.33 | 0.375 | 0.333 | 0.339 | 0.626 | 0.604 | 0.569 | 0.597 | 0.572 | 0.823 | 0.705
NCI-H2347 | 0.644 | 0.651 | 0.633 | 0.554 | 0.829 | 0.885 | 0.961 | 0.651 | 0.441 | 0.435 | 0.457 | 0.463 | 0.415 | 0.588 | 0.67 | 0.593 | 0.601 | 0.631 | 0.707 | 0.78
NCI-H2405 | 0.847 | – | 0.751 | 0.664 | 1.03 | – | 1.07 | 1.1 | 0.516 | 0.546 | 0.504 | 0.505 | 0.508 | 0.733 | 0.738 | 0.789 | 0.788 | 0.697 | 0.794 | 0.919
NCI-H3122 | 0.287 | 0.27 | 0.243 | 0.283 | 0.939 | 1.04 | 0.998 | 0.98 | 0.179 | 0.19 | 0.228 | 0.23 | 0.19 | 0.475 | 0.44 | 0.42 | 0.426 | 0.514 | 0.275 | 1.04
PC-3 [JPC-3] | 0.912 | 0.952 | 0.926 | 0.814 | 0.883 | 0.961 | 0.908 | 0.945 | 0.505 | – | 0.47 | 0.555 | 0.482 | 0.768 | – | 0.806 | 0.81 | 0.85 | 0.882 | 0.928
